Experimental data: PubChem BioAssay (NCI)
Where “and” joins values, the source holds several entries; their conditions need not be identical. Equal values may be shown once.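 Cultured in 96-well plates, cells were exposed to test compound for 48 hours across five concentrations. At the GI50, growth is halved. TGI marks complete inhibition of growth.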

Legend:
Test in all cases: NCI anticancer screen, dose series, 48 h
[1] = system: RPMI-8226 leukemia
[2] = system: OVCAR-3 ovarian
[3] = system: SK-MEL-5 melanoma
[4] = system: NCI-H522 lung
[5] = system: SN12C renal
[6] = system: NCI-H23 lung
[7] = system: UO-31 renal
[8] = system: UACC-257 melanoma
[9] = system: SF-539 CNS
[10] = system: MALME-3M melanoma

`O=C(c1ccccc1)c1c(NCC(O)CN2CCCC2)n(Cc2ccccc2)c(=O)n(Cc2ccccc2)c1=O` (centres undefined) gave a GI50 [1] of 19.3 µM, a TGI [1] of 48.4 µM and a GI50 [2] of 18.4 µM. The TGI [2] was 36.2 µM, the GI50 [3] was 12.5 µM and the TGI [3] was 25 µM. The GI50 [4] was 19.8 µM, the TGI [4] was 35.6 µM and the GI50 [5] was 19.3 µM. The TGI [5] was 39.1 µM, the GI50 [6] was 20 µM and the TGI [6] was 44.1 µM. It also gave a GI50 [7] of 18.8 µM, a TGI [7] of 40.2 µM and a GI50 [8] of 21 µM. The TGI [8] was 42.3 µM, the GI50 [9] was 19.6 µM and the TGI [9] was 33.9 µM.
For `CN1CCc2cc3c(cc2C1O)OCO3` (centres undefined), the TGI [1] was over 100 µM, the GI50 [5] was 20.4 µM and > 100 µM and the TGI [5] was 41.4 µM and > 100 µM. For the same compound, the TGI [6] was 32.1 µM and > 100 µM, the GI50 [7] was 17.4 µM and > 100 µM and the TGI [7] was 37.4 µM and > 100 µM. The TGI [8] was 10.8 µM and > 100 µM, the GI50 [9] was 12.8 µM and > 100 µM and the TGI [9] was 29.4 µM and > 100 µM.
`COc1cc(-c2nn3c(/C=C4/C(=O)Nc5ccccc54)c(-c4ccc(C)cc4)nc3s2)cc(OC)c1OC` was tested, and the GI50 [2] was 2.9 µM, the TGI [2] was over 100 µM and the GI50 [4] was 10.2 µM. The TGI [4] was 37.5 µM, the GI50 [5] was 5.26 µM and the TGI [5] was over 100 µM. It also gave a GI50 [6] of 4.54 µM, a TGI [6] of 25.3 µM and a GI50 [7] of 8.44 µM. For the same compound, the TGI [7] was over 100 µM, the GI50 [10] was 0.765 µM and the TGI [10] was 4.78 µM. For the same compound, the GI50 [9] was 12.9 µM and the TGI [9] was 96 µM.
`CCCCCCCCCCCOC(=S)NC(C)C` was tested, and the TGI [1] was 33.2 µM, the TGI [3] was 31.2 µM and the TGI [4] was 39.7 µM. It also gave a TGI [5] of 30.1 µM, a TGI [6] of 38.1 µM and a TGI [7] of 32.2 µM. It also gave a TGI [8] of 42.6 µM, a TGI [10] of 49.5 µM and a TGI [9] of 35.4 µM.
Compound `O=C(c1ccc2ccccc2c1O)N1CCCCC1` has a TGI [1] of 95.9 µM, a TGI [3] of over 100 µM and a TGI [6] of 90 µM. The TGI [7] was over 100 µM, the TGI [8] was over 100 µM and the TGI [9] was over 100 µM.
`Nc1ncnc2c1ncn2C1OC(COP(=O)(O)CP(=O)(O)O)C(O)C1O` (centres undefined) gave a TGI [1] of over 100 µM, a TGI [3] of over 100 µM and a TGI [4] of over 100 µM. For the same compound, the TGI [5] was over 100 µM, the TGI [6] was over 100 µM and the TGI [7] was over 100 µM. The TGI [8] was over 100 µM, the TGI [10] was over 100 µM and the TGI [9] was over 100 µM.
Work on `O=P([O-])(O)OP(=O)([O-])O.[NH-][C@H]1CCCC[C@@H]1[NH-].[OH-].[OH-].[Pt+4]` yielded a GI50 [1] of over 100 µM, a TGI [1] of over 100 µM and a GI50 [2] of 21 µM. The TGI [2] was 39 µM, the GI50 [3] was 42.3 µM and the TGI [3] was over 100 µM. For the same compound, the GI50 [5] was 29.2 µM, the TGI [5] was 87.9 µM and the GI50 [6] was 20.8 µM. The TGI [6] was 46.1 µM, the GI50 [7] was 19.1 µM and the TGI [7] was 44 µM. It also gave a GI50 [8] of 37 µM, a TGI [8] of over 100 µM and a GI50 [10] of 14.3 µM. For the same compound, the TGI [10] was 38.2 µM, the GI50 [9] was 22.3 µM and the TGI [9] was 57.6 µM.
For `O=C(NCCCCCCCCNC(=O)c1cnc2ccccc2n1)c1cnc2ccccc2n1`, the TGI [1] was over 100 µM, the TGI [2] was over 100 µM and the TGI [3] was over 100 µM. The TGI [5] was over 100 µM, the TGI [6] was over 100 µM and the TGI [7] was over 100 µM. For the same compound, the TGI [8] was over 100 µM, the TGI [10] was over 100 µM and the TGI [9] was over 100 µM.
For `COc1cc2c(/C=N\N=C(N)N)c(Cl)[nH]c2cc1C`, the GI50 [1] was 10.5 µM, the TGI [1] was 25 µM and the GI50 [2] was 5.49 µM. The TGI [2] was 20.6 µM, the GI50 [3] was 5.08 µM and the TGI [3] was 19 µM. It also gave a GI50 [4] of 21.4 µM, a TGI [4] of over 100 µM and a GI50 [5] of 1.65 µM. It also gave a TGI [5] of 11.5 µM, a GI50 [6] of 14.1 µM and a TGI [6] of 28 µM. It also gave a GI50 [7] of 27.5 µM, a TGI [7] of 84.6 µM and a GI50 [8] of 16.5 µM. It also gave a TGI [8] of 32.5 µM, a GI50 [9] of 10.2 µM and a TGI [9] of 25 µM.
For `COc1c2c(c3c(c1C1OC(C)[C@@H](C)O1)CC(C)(C)O3)C(=O)c1ccccc1C2=O` (some centres undefined), the TGI [1] was 52.2 µM, the TGI [2] was over 100 µM and the TGI [3] was over 100 µM. It also gave a TGI [5] of over 100 µM, a TGI [6] of over 100 µM and a TGI [7] of over 100 µM. For the same compound, the TGI [8] was over 100 µM, the TGI [10] was over 100 µM and the TGI [9] was over 100 µM.
With `c1ccc(SC2(Sc3ccccc3)CCCC2)cc1` the TGI [1] was over 100 µM, the TGI [2] was over 100 µM and the TGI [3] was over 100 µM. For the same compound, the TGI [4] was over 100 µM, the TGI [5] was over 100 µM and the TGI [6] was over 100 µM. It also gave a TGI [7] of over 100 µM, a TGI [8] of over 100 µM and a TGI [9] of over 100 µM.
`COc1cccc(C2CC(c3cc(OC)c(OC)c(OC)c3)=NN2)c1` (centres undefined) gave a GI50 [1] of 5.18 µM, a TGI [1] of 26 µM and a GI50 [2] of 20.2 µM. For the same compound, the TGI [2] was 76.3 µM, the GI50 [3] was 11.8 µM and the TGI [3] was 24 µM. The GI50 [4] was 12.8 µM, the TGI [4] was 42.1 µM and the GI50 [5] was 22.7 µM. It also gave a TGI [5] of over 100 µM, a GI50 [7] of 14.4 µM and a TGI [7] of 38.8 µM. It also gave a GI50 [8] of 12.7 µM, a TGI [8] of 36.4 µM and a GI50 [10] of 23.4 µM. For the same compound, the TGI [10] was over 100 µM, the GI50 [9] was 5.33 µM and the TGI [9] was 21.1 µM.
Work on `CC(C)=CCN=C(N)N` yielded a TGI [1] of 99.7 µM, a TGI [3] of over 100 µM and a TGI [4] of over 100 µM. For the same compound, the TGI [5] was over 100 µM, the TGI [6] was over 100 µM and the TGI [7] was over 100 µM. For the same compound, the TGI [8] was over 100 µM, the TGI [10] was over 100 µM and the TGI [9] was over 100 µM.
`C1=C(c2ccccc2)CN(c2ccccc2)OC1` showed a TGI [1] of over 100 µM, a TGI [2] of over 100 µM and a TGI [4] of over 100 µM. For the same compound, the TGI [5] was over 100 µM, the TGI [6] was over 100 µM and the TGI [7] was over 100 µM. It also gave a TGI [10] of over 100 µM and a TGI [9] of over 100 µM.
With `CCC[CH2][Sn]([CH2]CCC)([O]C(=O)c1c(F)cccc1F)[O]C(=O)c1c(F)cccc1F` the GI50 [2] was 1.14 µM, the TGI [2] was 2.36 µM and the GI50 [3] was 1.24 µM. For the same compound, the TGI [3] was 2.52 µM, the GI50 [4] was 0.0905 µM and the TGI [4] was 0.213 µM. It also gave a GI50 [5] of 0.777 µM, a TGI [5] of 2.03 µM and a GI50 [6] of 0.439 µM. The TGI [6] was 1.6 µM, the GI50 [7] was 1.31 µM and the TGI [7] was 2.59 µM. For the same compound, the GI50 [8] was 0.671 µM, the TGI [8] was 1.99 µM and the GI50 [10] was 0.462 µM. For the same compound, the TGI [10] was 1.8 µM, the GI50 [9] was 1.02 µM and the TGI [9] was 2.2 µM.
For `NNC(=S)N/N=C(\CCCC(=O)NCCc1ccccc1)CC(=O)c1ccccc1`, the TGI [2] was over 100 µM, the TGI [3] was over 100 µM and the TGI [4] was over 100 µM. The TGI [5] was over 100 µM, the TGI [6] was over 100 µM and the TGI [7] was over 100 µM. It also gave a TGI [8] of over 100 µM, a TGI [10] of over 100 µM and a TGI [9] of over 100 µM.
Compound `COc1ccc(/C=C2\CN(C)Cc3c2nc(N)nc3-c2ccc(OC)cc2)cc1` has a TGI [1] of over 100 µM, a TGI [2] of over 100 µM and a TGI [3] of over 100 µM. It also gave a TGI [4] of over 100 µM, a TGI [5] of over 100 µM and a TGI [6] of over 100 µM. It also gave a TGI [7] of over 100 µM, a TGI [10] of over 100 µM and a TGI [9] of over 100 µM.
`Cc1nc2ccc(CN(C)c3ccc(C(=O)N[C@@H](CCC(=O)O)C(=O)O)s3)cc2c(=O)[nH]1` was tested, and the TGI [1] was over 100 µM, the TGI [2] was over 100 µM and the GI50 [3] was 0.173 µM. It also gave a TGI [3] of over 100 µM, a TGI [4] of over 100 µM and a TGI [5] of over 100 µM. For the same compound, the GI50 [6] was 2.62 µM, the TGI [6] was over 100 µM and the GI50 [7] was under 0.01 µM. The TGI [7] was over 100 µM, the TGI [8] was over 100 µM and the TGI [10] was over 100 µM.
Work on `C#CCC[C@@H]1O[C@@]1(C)CC/C=C(\C)CC/C=C/C=O` yielded a TGI [1] of 56.4 µM, a TGI [2] of 85.9 µM and a TGI [5] of over 100 µM. It also gave a TGI [6] of over 100 µM, a TGI [7] of over 100 µM and a TGI [8] of 69.7 µM. It also gave a TGI [10] of 48.3 µM and a TGI [9] of 38.7 µM.
